Data published in ChEMBL document CHEMBL1764994, “QSAR-based permeability model for drug-like compounds” (Bioorg Med Chem, 2011).
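For permeability in this document: apparent permeability through Caco-2 cell membranes, with the permeated amount quantified by LC-MS/MS.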

The compounds below were run on Caco-2. Settings: human, Caco-2, 2 h.
In the case of `CCOC(=O)[C@H](CCc1ccccc1)N[C@@H](C)C(=O)N1CCC[C@H]1C(=O)O`, the logPapp is reported as -6.1.
`CC[C@H](C)C(=O)O[C@H]1C[C@H](O)C=C2C=C[C@H](C)[C@H](CC[C@@H](O)C[C@@H](O)CC(=O)O)[C@H]21` [PRAVASTATIN] showed a logPapp of -6.56.
For `CC(C)[C@H](N)C(=O)OCCOCn1cnc2c(=O)[nH]c(N)nc21` [VALACYCLOVIR], the logPapp was -6.52.

Each compound was assayed on Caco-2. Settings: human.
`CCOC(=O)[C@H](CCc1ccccc1)N[C@@H](C)C(=O)N1CCC[C@H]1C(=O)O` was tested, and the logPapp was -5.7.
For `CC[C@H](C)C(=O)O[C@H]1C[C@H](O)C=C2C=C[C@H](C)[C@H](CC[C@@H](O)C[C@@H](O)CC(=O)O)[C@H]21` [PRAVASTATIN], the logPapp was -5.64.
Compound `CC(C)[C@H](N)C(=O)OCCOCn1cnc2c(=O)[nH]c(N)nc21` [VALACYCLOVIR] has a logPapp of -6.3.

Tested on: Caco-2
Settings: human, Caco-2, 2 h
Remark: another data set of the same source
With `CCCc1nc2c(C)cc(-c3nc4ccccc4n3C)cc2n1Cc1ccc(-c2ccccc2C(=O)O)cc1` the logPapp was -4.82.
With `Cc1ccc(/C(=C\CN2CCCC2)c2cccc(/C=C/C(=O)O)n2)cc1` [ACRIVASTINE] the logPapp was -5.72.
For `CC1(C)S[C@@H]2[C@H](NC(=O)[C@H](N)c3ccc(O)cc3)C(=O)N2[C@H]1C(=O)O` [AMOXICILLIN], the permeability was “permeable”.
With `Cc1cc(=O)n(-c2ccccc2)n1C` [ANTIPYRINE] the permeability was “permeable”.
In the case of `NC(=O)N1c2ccccc2C=Cc2ccccc21` [CARBAMAZEPINE], the logPapp is reported as -5.3 and the permeability is reported as “permeable”.
With `CN/C(=N/CCSCc1nc[nH]c1C)NC#N` [CIMETIDINE] the logPapp was -5.88.
In the case of `Clc1cccc(Cl)c1N=C1NCCN1` [CLONIDINE], the logPapp is reported as -4.66.
`NCCc1ccc(O)c(O)c1` [DOPAMINE] gave a logPapp of -5.03.
For `CNC[C@H](O)c1ccc(O)c(O)c1` [EPINEPHRINE], the logPapp was -6.02.
`CC(C)n1c(/C=C/C(O)CC(O)CC(=O)O)c(-c2ccc(F)cc2)c2ccccc21` (centres undefined) [FLUVASTATIN] was tested, and the permeability was “permeable”.
`CC(C(=O)O)c1cccc(C(=O)c2ccccc2)c1` (centres undefined) [KETOPROFEN] was tested, and the permeability was “permeable”.
With `OC[C@@H](O)[C@@H](O)[C@H](O)[C@H](O)CO` [MANNITOL] the permeability was “permeable”.
With `C[C@](N)(Cc1ccc(O)c(O)c1)C(=O)O` [METHYLDOPA] the permeability was “permeable”.
In the case of `COCCc1ccc(OCC(O)CNC(C)C)cc1` (centres undefined) [METOPROLOL], the permeability is reported as “permeable”.
Compound `CC#Cc1cn([C@@H]2O[C@H](CO)[C@@H](O)[C@@H]2O)c(=O)[nH]c1=O` [NETIVUDINE] has a logPapp of -6.17.
`CN1CCC[C@H]1c1cccnc1` [NICOTINE] was tested, and the logPapp was -4.58.
`C=CCOc1ccccc1OCC(O)CNC(C)C` (centres undefined) [OXPRENOLOL] was tested, and the logPapp was -4.21.
In the case of `CC1(C)S[C@@H]2[C@H](NC(=O)Cc3ccccc3)C(=O)N2[C@H]1C(=O)O` [PENICILLIN G], the logPapp is reported as -6.11.
In the case of `c1ccc(C2(N3CCCCC3)CCCCC2)cc1` [PHENCYCLIDINE], the logPapp is reported as -4.61.
`CC(C)NCC(O)COc1cccc2[nH]ccc12` (centres undefined) [PINDOLOL] gave a logPapp of -4.41.
Compound `CC(C(=O)O)c1ccc2c(c1)Cc1cccnc1O2` (centres undefined) [PRANOPROFEN] has a logPapp of -4.39.
`CC(=O)[C@H]1CC[C@H]2[C@@H]3CCC4=CC(=O)CC[C@]4(C)[C@H]3CC[C@]12C` [PROGESTERONE] showed a logPapp of -4.55.
With `CNC(=C[N+](=O)[O-])NCCSCc1ccc(CN(C)C)o1` [RANITIDINE] the logPapp was -6.2 and the permeability was “permeable”.
With `O=C(O)c1cc(/N=N/c2ccc(S(=O)(=O)Nc3ccccn3)cc2)ccc1O` [SULFASALAZINE] the logPapp was -6.61.
Work on `C[C@H](CCC(=O)NCCS(=O)(=O)O)[C@H]1CC[C@H]2[C@@H]3[C@H](O)C[C@@H]4C[C@H](O)CC[C@]4(C)[C@H]3C[C@H](O)[C@]12C` [TAUROCHOLIC ACID] yielded a logPapp of -4.46.
In the case of `Cn1c(=O)c2[nH]cnc2n(C)c1=O.O` [THEOPHYLLINE], the logPapp is reported as -4.4 and the permeability is reported as “permeable”.
With `CC(C(=O)O)c1ccc(C(=O)c2ccccc2)s1` (centres undefined) [TIAPROFENIC ACID] the logPapp was -4.41.
`CC(C)(C)NC[C@H](O)COc1nsnc1N1CCOCC1` [TIMOLOL] showed a logPapp of -4.43.
In the case of `CNC(=NCCSCc1csc(N=C(N)N)n1)NC#N` [TIOTIDINE], the logPapp is reported as -5.66.
`N[C@@H]1[C@H]2CN(c3nc4c(cc3F)c(=O)c(C(=O)O)cn4-c3ccc(F)cc3F)C[C@@H]12` [TROVAFLOXACIN] was tested, and the logPapp was -4.52.
